For assay [1], the target named is T1, BdOctβR1 (Bactrocera dorsalis, UniProt A0ABM3J3U4). The assay can be described thus: Agonist cAMP response assay (GloSensor luminescence) of BdOctβR1 transiently expressed in HEK-293 cells. It counts as cell-based. As to conditions: for EC50: BdOctβR1 in HEK-293 cells, cAMP luminescence, read-out: median effective concentration (EC50). From the text: A 10-fold serial dilution of the ligands octopamine, tyramine, dopamine, naphazoline, and phentolamine was applied to the cells. […] The authentic ligand octopamine was selected as the model ligand for normalization of the luminescence. A concentration–response curve was generated for each receptor by logistic fitting in Origin 8.6 (OriginLab, Northampton, MA, USA) as previously reported.

A further assay relates to AmOctβR1. Set-up: method as in PMID 24266860. As to conditions: AmOctβR1 of A. mellifera; cited from earlier work.
The test system of assay [2] is DmOctβR1. Set-up: method as in PMID 15998303. The following applies: DmOctβR1 of D. melanogaster; cited from earlier work.
The test system of assay [3] is empty pcDNA3.1 vector-transfected HEK-293 cells. The assay can be described thus: Negative control: cAMP luminescence in empty pcDNA3.1 vector-transfected HEK-293 cells. It counts as cell-based. The following applies: ligands at 1.00 × 10^−6 M.
Assay [4] deals with T1, BdOctβR1. Description: cell-based.
Procedure: (§1) For the cAMP response assays, we used the non-lytic GloSensor cyclic AMP assay kit (Promega) for monitoring intracellular cAMP in live cells. At the same time, the empty pcDNA3.1 vector was transfected in HEK-293 cells as a negative control. The methods for transient expression of BdOctβR1 in HEK-293 cells and procedures for the assays were followed as previously described [41, 42, 43, 44]. Thirty hours after the transfection, the cells were collected and preincubated with 1% GloSensor substrate in HEK-293 cells (Invitrogen) before the test. Ligands being tested were plated in each well of the 96-well plate. As described previously, the cells were injected into a well, and the changes in luminescence were monitored [45].
(§2) The antagonist assay was examined with serial dilutions of antagonists in the transfected cells on a luminescence detection systems (Berthold Technologies). Basically, the antagonistic activity assay was conducted in 2 sequential treatments. In the 1st treatment, various concentrations of ligands (50 μL in volume) were plated in each well, including a solvent (DMEM, Dulbecco’s modified Eagle’s medium) as control. Following the injection of the cells into the well, a 30-min incubation with the tested ligands was conducted. Subsequently, the 2nd treatment was conducted. The cells were treated with 1.00 × 10^−6 M octopamine, which was the minimum concentration inducing the maximal activity, and the luminescent response was measured. For the assays, the cells treated with DMEM in both the 1st and 2nd treatment were set as background. The cells were treated with DMEM in the 1st treatment, while 1.00 × 10^−6 M octopamine in the 2nd treatment, without adding any antagonist, served as positive control. Relative luminescence of ligand was normalized to the largest positive control response in each plate (1.00 × 10^−6 M octopamine) after background subtractions [43]. The values calculated in the treatment were used to construct the inhibitor concentration–response curves. […]
In assay [5] the test system is DmOctβR1. More on the design: method as in PMID 15998303. The following applies: DmOctβR1 in Drosophila; cited from earlier work.
Assay [6] addresses T1, BdOctβR1.
Procedure: as §1, §2

Structures can show the parent of a compound that is named as a salt.

T1 sequence (A0ABM3J3U4 entry or part of it): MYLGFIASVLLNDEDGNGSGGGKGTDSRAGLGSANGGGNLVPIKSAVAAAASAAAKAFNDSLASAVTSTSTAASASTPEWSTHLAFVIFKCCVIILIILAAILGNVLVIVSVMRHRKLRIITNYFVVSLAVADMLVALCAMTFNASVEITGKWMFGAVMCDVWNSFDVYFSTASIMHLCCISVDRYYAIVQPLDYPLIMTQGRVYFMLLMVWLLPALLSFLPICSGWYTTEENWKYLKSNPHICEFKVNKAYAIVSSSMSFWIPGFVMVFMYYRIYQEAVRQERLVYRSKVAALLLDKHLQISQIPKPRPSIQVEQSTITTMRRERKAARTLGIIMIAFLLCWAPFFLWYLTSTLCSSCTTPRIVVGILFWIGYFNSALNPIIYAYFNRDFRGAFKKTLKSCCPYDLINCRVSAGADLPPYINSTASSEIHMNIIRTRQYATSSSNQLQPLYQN

`c1ccc2c(CC3=NCCN3)cccc2c1` [naphazoline, naphazoline hydrochloride]: the EC50 at BdOctβR1 [1] worked out at 0.635 nM.

With `NCC(O)c1ccc(O)cc1` (racemic) [octopamine, (±)-octopamine hydrochloride], the EC50 at BdOctβR1 [1] is 0.911 nM; in the assay with AmOctβR1 it was 43.9 nM; with DmOctβR1 [2], 5.56 nM. The “effect on cAMP luminescence / cAMP production in empty-vector cells” value in assay [3] is listed as “not”.

Usually IC50 stands for the concentration that inhibits the measured activity by half. Low values mean inhibition by little substance, high ones a need for much substance. With `Cc1ccc(N(CC2=NCCN2)c2cccc(O)c2)cc1` [phentolamine, phentolamine hydrochloride], the Emax at 10 µM on BdOctβR1 [1] (HEK293, at 1.00 × 10^−5 M, normalized to octopamine at 1 × 10^−5 M (=100%), read-out: agonistic effect (relative cAMP luminescence)) was around 20%. The IC50 on BdOctβR1 [4] was 3800 nM.

For the molecule `CN1CCN2c3ccccc3Cc3ccccc3C2C1` (centres unmarked) [mianserin, mianserin hydrochloride], in the assay with DmOctβR1 [5], the “antagonistic activity (in words)” value is recorded as “blocked”.

With `CN(C)CCCN1c2ccccc2Sc2ccc(Cl)cc21` [chlorpromazine, chlorpromazine hydrochloride], the IC50 at BdOctβR1 [4] turned out to be 2660 nM. Also, the “antagonistic activity (in words)” value on BdOctβR1 [6] is on record as “weak antagonistic activity”; in the assay on DmOctβR1 [5] it was “ineffective”.

As to `NCCc1ccc(O)c(O)c1` [dopamine, dopamine hydrochloride], the EC50 on BdOctβR1 [1] amounted to 3320 nM.

With `NCCc1ccc(O)cc1` [tyramine, Tyramine hydrochloride], the EC50 on BdOctβR1 [1] was found to be 19.7 nM. The “effect on cAMP luminescence / cAMP production in empty-vector cells” value in assay [3] is “not”.
